Measurements: patent publication US9198416B2, “Method for enhancing drought tolerance in plants” (Plant Response Biotech S.L., priority 2013, dated 2015)

Legend:
Assay type in all cases: in vivo
[1] = TMAO content in pepper leaves by NMR after TMAO spray; conditions: 1 g/l spray
Protocol: (§1) For each wilting or limited water experiment 480 seeds (of either pepper, barley, tomato, cucumber or corn) were sown, producing 384 plants in 512 cm^3 pots (4 plants per pot). Plants were grown under chamber conditions at 21° C. for 3 weeks. Then, the plants were moved to a greenhouse, where average temperature was 25° C. to 28° C. Treatments as described herein were done when the plants had two extended leaves and the next pair of leaves were coming up.
(§2) TMAO content in plants was determined by harvesting three leaves per treatment and freezing them in liquid nitrogen before the NMR determination. At least three independent plants were treated per experiment.
(§3) TMAO accumulates in pepper and barley when applied exogenously. ‘Murano’ pepper seeds and ‘Bomi’ barley seeds were sown and grown as described above. Control plants (six weeks old) were sprayed with water and pepper treated plants were sprayed with 1 g/l of TMAO while barley plants were sprayed with 1 g/l of TMAO formulated with 0.1% of C8-C10 Alkylpolysaccharide. Leaves were harvested and TMAO was determined by NMR. The percentage of TMAO increase compared to untreated controls was determined for each time point. TMAO levels increase in pepper and barley with exogenous treatment of TMAO at 1 g/l to higher levels than drought treatment and furthermore, the TMAO levels are high up to 40 days post spray in pepper.

'FAO700' corn = assay: Corn number of green leaves under limited water irrigation; conditions: 30% water, 1 g/L (Table 11 rows 3 and 4)
Protocol: as §1
(§4) After the treatments described above, the plants were not watered until the pots completely lost their moisture, taking about 4 to 8 days depending on the season, at which point the plants were extremely wilted for the extreme drought experiments. The plants were then watered once with solutions containing the different amounts of TMAO di-hydrate described above (0.1 g/L, 1.0 g/L or 5.5 g/L) or just water, after which the plants were left to lose their moisture completely again for three consecutive cycles of watering after wilting. […] The plant survival rate was recorded and analyzed for the “extreme drought” experiments in which plants were allowed to wilt severely before watering, while the stem length was recorded as analyzed for the limited water experiments in which the plants are watered with 30% of the water that the plant requires. […]

[2] = system: tomato 'Moneymaker' seeds; assay: Tomato seed germination under PEG-6000 simulated drought; conditions: 10 days
Protocol: In order to determine the drought or water stress tolerance after seed treatments with TMAO di-hydrate and germination in the presence of TMAO di-hydrate, tomato ‘Moneymaker’ seeds were surface sterilized for 3 minutes in ethanol 70%, then rinsed twice and finally included in a pre-treatment solution of 0.1 g/L TMAO di-hydrate solution (or just water) under shaking for 3 hours. Then, they were rinsed and included in the germination plates under sterile conditions. Polyethylene glycol (PEG-6000) was added to the germination medium (Murashige and Skoog salts medium) at 152 and 182 g/L. The increasing amount of PEG reduces ψ (hydric potential) values, simulating drought conditions for germination. Each germination plate had at least 30 seeds, and each treatment/pretreatment plate was replicated five times (150 seeds per treatment/pretreatment). Seeds were left to germinate for 10 days under dark conditions in a culture chamber (21° C. light and 20° C. night, 65% humidity). Then, germinated seeds were recorded by visual inspection and data analysis was performed using Statgraphics software.
TMAO di-hydrate applied exogenously increases germination both in pre-treatment of the seeds and as an additive to the medium. Tomato ‘Moneymaker’ seeds were sown, grown and treated as described above.

'TAO700' corn [3] = assay: Corn total chlorophyll content under limited water irrigation; conditions: 30% water
Protocol: as §1, §4

'Rio Grande' tomato = assay: Tomato fruit production under limited water irrigation; conditions: 30% water irrigation, 1 g/L TMAO spray every 4 weeks
Protocol: as §1, §4

'Murano' pepper = assay: Pepper plant survival under extreme drought; conditions: 10 g/L and 1 g/L sprayed, irrigation with water (as worded)
Protocol: as §1
Twelve (12) pots (containing 48 plants) were irrigated with 40 ml of either: water, 0.1 g/L TMAO di-hydrate solution, 1.0 g/L TMAO di-hydrate solution, or 5.5 g/L TMAO di-hydrate solution. […] All pots were also watered with 40 ml of water. […]
(§5) After the treatments described above, the plants were not watered until the pots completely lost their moisture, taking about 4 to 8 days depending on the season, at which point the plants were extremely wilted for the extreme drought experiments. […] The plant survival rate was recorded and analyzed for the “extreme drought” experiments in which plants were allowed to wilt severely before watering, while the stem length was recorded as analyzed for the limited water experiments in which the plants are watered with 30% of the water that the plant requires. […]

Moneymaker tomato = assay: Tomato plant survival under extreme drought; conditions: higher test rates, both treatments (sprayed or watered)
Protocol: as §1
Twelve (12) pots (containing 48 plants) were irrigated with 40 ml of either: water, 0.1 g/L TMAO di-hydrate solution, 1.0 g/L TMAO di-hydrate solution, or 5.5 g/L TMAO di-hydrate solution. […]
as §5

[4] = TMAO content in barley leaves by NMR after TMAO spray; conditions: 1 g/l spray formulated with 0.1% C8-C10 Alkylpolysaccharide, 1 day post spray
Protocol: as §1, §2, §3

'TAO700' corn [5] = assay: Corn number of grains per cob under limited water irrigation; conditions: 30% water, 1 g/L (Table 13 row 4)
Protocol: as §1, §4

[6] = system: 'Sabrina', 'Candonga' and 'Fortuna' variety strawberry plants; assay: Strawberry fruit production under normal conditions (trade-off test); conditions: no water stress; for Strawberry fruit production % Control: 1 g/L spray every 4 weeks for 3 months
Protocol: In order to determine the plant fruit productivity under normal conditions, ‘Sabrina’, ‘Candonga’ and ‘Fortuna’ variety strawberry plants were grown under standard strawberry production conditions and 120 plants of each variety per treatment (where the treatment was a Control comprising standard watering or 1 g/L of TMAO spray every four weeks) were analyzed. Plants were located in four (4) different positions for each group of 30 plants from the same treatment. Fruits were harvested from individual plants and total weight was determined for each plant.
Fruit yield was determined in ‘Sabrina’, ‘Candonga’ and ‘Fortuna’ strawberry plants treated with 1 g/l of TMAO di-hydrate or water as described above in order to evaluate the trade-off costs of the treatment with no water stress.

'Bomi' barley = assay: Barley dry weight under drought / limited water irrigation; conditions: drought growing conditions
Protocol: as §1
Twelve (12) pots (containing 48 plants) were irrigated with 40 ml of either: water, 0.1 g/L TMAO di-hydrate solution, 1.0 g/L TMAO di-hydrate solution, or 5.5 g/L TMAO di-hydrate solution. Another set of 12 pots containing 48 plants were sprayed with 40 ml of either water (3.3 ml in average per pot), a solution containing 0.1 g/L TMAO di-hydrate solution, 1.0 g/L TMAO di-hydrate, or 5.5 g/L TMAO di-hydrate. All pots were also watered with 40 ml of water. The sprayed plants were watered with the same volume of water as the “irrigated plants) The pots were located on plastic glass to maintain constant moisture and to avoid liquid spillage during watering. Trays containing the pots were located on greenhouse tables. The distribution of the trays on the table and the position on the pots in the tray was changed every week to avoid position effects.
as §5

## C[N+](C)(C)[O-] [TMAO, Trimethylamine N-oxide]
[1]; 1 day post spray, vs water-sprayed control
  TMAO accumulation % Control: 529 % Control
[1]; 10 days post spray
  TMAO accumulation % Control: 373 % Control
[1]; 20 days post spray
  TMAO accumulation % Control: 286 % Control
[1]; 30 days post spray
  TMAO accumulation % Control: 135 % Control
[1]; 40 days post spray
  TMAO accumulation % Control: 213 % Control
'FAO700' corn
  increase in green leaf production over untreated plants with 30% irrigation: 47%
[2]; PEG 152 g/L (ψ −0.2564), 0.1 g/L in the germination medium
  GERMINATION RATE: 71.09 ± 4.26%
[2]; PEG 152 g/L (ψ −0.2564), seed pre-treatment 0.1 g/L solution 3 hours
  GERMINATION RATE: 70.62 ± 4.62%
[2]; PEG 182 g/L (ψ −0.3676), 0.1 g/L in the germination medium
  GERMINATION RATE: 45.00 ± 3.20%
[2]; PEG 182 g/L (ψ −0.3676), seed pre-treatment 0.1 g/L solution 3 hours
  GERMINATION RATE: 18.53 ± 3.20%
'TAO700' corn [3]; 1 g/L TMAO seed treatment
  TOTAL CHLOROPHYL CONTENT: 0.8977 ± 0.195
'TAO700' corn [3]; 1 g/L TMAO spray
  TOTAL CHLOROPHYL CONTENT: 0.7278 ± 0.076
'Rio Grande' tomato
  AVERAGE WEIGTH (grams/fruit): 76.73 ± 17.67 grams/fruit
'Murano' pepper
  plant survival: 83.3%
Moneymaker tomato
  shoot dry mass compared with untreated plants: clear increase
[4]
  TMAO accumulation % Control: 822 % Control
'TAO700' corn [5]
  increase in total number of grains per corn cob compared to 100% irrigation: 2%
[6]; 1 g/l, three strawberry varieties
  difference in fruit production vs water: no significant difference
[6]; Candonga
  Strawberry fruit production % Control: 102 % Control
[6]; Fortuna
  Strawberry fruit production % Control: 101 % Control
[6]; Sabrina
  Strawberry fruit production % Control: 106 % Control
[6]; Total of the three varieties
  Strawberry fruit production % Control: 105 % Control
'Bomi' barley; initial treatment 1 g/L sprayed solution, irrigations water
  AVERAGE DRY WEIGHT: 1205.4 ± 60.37 mg
'Bomi' barley; initial treatment 1 g/L watered solution, irrigations water
  AVERAGE DRY WEIGHT: 1371.4 ± 66.13 mg
'Bomi' barley; irrigations 1 g/L solution, initial treatments pooled
  AVERAGE DRY WEIGHT: 1216.1 ± 33.44 mg
